Consider 16 compounds from patent US11919908B2, “Substituted pyrrolo[2,3-d]pyrimidine compounds as JAK2 V617F inhibitors” (Incyte Corporation, priority 2020, dated 2024).

As a reminder, the IC50 is the concentration that gives 50% inhibition. Higher therefore signals a need for much substance.

The target in assay [1] is T1, catalytic domain (JH1) of human JAK2 (Homo sapiens, UniProt O60674).
T1 construct: catalytic domain (JH1, amino acids 826-1132) of human JAK2; FLAG (N); purchased Carna Biosciences 08-445-20N; host or cells: baculovirus expression system
T1 sequence (O60674 826-1132): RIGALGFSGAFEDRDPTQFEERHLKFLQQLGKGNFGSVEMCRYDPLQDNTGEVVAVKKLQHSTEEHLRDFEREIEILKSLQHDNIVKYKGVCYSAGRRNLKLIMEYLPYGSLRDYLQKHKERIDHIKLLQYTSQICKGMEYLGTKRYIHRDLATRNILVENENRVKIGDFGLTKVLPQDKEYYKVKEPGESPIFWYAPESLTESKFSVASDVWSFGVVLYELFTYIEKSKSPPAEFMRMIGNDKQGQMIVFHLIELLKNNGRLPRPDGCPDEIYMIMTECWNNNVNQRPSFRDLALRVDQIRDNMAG
Description: JAK2 LanthaScreen JH1 Binding Assay. As to conditions: 50 nM Fluorescent JAK2-JH1 Tracer, 2 hours at 25° C. The protocol: Example A. JAK2 LanthaScreen […] Binding Assay JAK2 JH1 binding assay utilizes catalytic domain (JH1, amino acids 826-1132) of human JAK2 expressed as N-terminal FLAG-tagged, biotinylated protein in a baculovirus expression system (Carna Biosciences, Product #08-445-20N). The assay was conducted in black 384-well polystyrene plates in a final reaction volume of 20 μL. JAK2 JH1 (1.5 nM) was incubated with compounds (100 nL serially diluted in DMSO) in the presence of 50 nM Fluorescent JAK2-JH1 Tracer and 0.5 nM Streptavidin-Tb cryptate (Cisbio Part #610SATLB) in assay buffer (50 mM Tris, pH=7.5, 10 mM MgCl2, 0.01% Brij-35, 0.1% BSA, 1 mM EGTA, 5% Glycerol and 5 mM DTT). Non-specific binding was accessed in the presence of 2 mM ATP. After incubation for 2 hours at 25° C., LanthaScreen signals were read on a PHERAstar FS plate reader (BMG LABTECH). Data was analyzed with IDBS XLfit and GraphPad Prism 5.0 software using a four parameter dose response curve to determine IC50 for each compound.
Background: In TR-FRET formats the signal depends on donor and acceptor labels being close together.

Assay [2] addresses T2, pseudo-kinase domain (JH2) of human Wild Type JAK2 (Homo sapiens, UniProt O60674, F794H/W659A/W777A).
T2 construct: pseudo-kinase domain (JH2, amino-acids 536-812 with 3 surface mutations W659A, W777A, F794H); His (C); purchased BPS Bioscience 79463; host or cells: baculovirus expression system
In words: JAK2 LanthaScreen JH2-WT Binding Assay. As to conditions: 50 nM Fluorescent JAK2-JH2 Tracer, 1 hour at 25° C. The protocol: (§1) Example B. JAK2 LanthaScreen JH2-WT Binding Assay JAK2 JH2-WT binding assay utilizes pseudo-kinase domain (JH2, amino-acids 536-812 with 3 surface mutations […]) of human Wild Type JAK2 expressed as C-terminal His-Avi-tagged, biotinylated protein in a baculovirus expression system (BPS Bioscience, Catalog #79463). The assay was conducted in black 384-well polystyrene plates in a final reaction volume of 20 μL. JAK2 JH2-WT (0.145 nM) was incubated with compounds (100 nL serially diluted in DMSO) in the presence of 50 nM Fluorescent JAK2-JH2 Tracer (MedChem Express Catalog #HY-102055) and 0.25 nM Streptavidin-Tb cryptate (Cisbio Part #610SATLB) in assay buffer (50 mM Tris, pH=7.5, 10 mM MgCl2, 0.01% Brij-35, 0.1% BSA, 1 mM EGTA, 5% Glycerol and 5 mM DTT). Non-specific binding was accessed in the presence of 2 mM ATP. After incubation for 1 hour at 25° C., LanthaScreen signals were read on a PHERAstar FS plate reader (BMG LABTECH). Data was analyzed with IDBS XLfit and GraphPad Prism 5.0 software using a four parameter dose response curve to determine IC50 for each compound.

For assay [3], the target named is T3, pseudo-kinase domain (JH2) of human V617F mutant JAK2 (Homo sapiens, UniProt O60674, F794H/V617F/W659A/W777A).
T3 construct: pseudo-kinase domain (JH2, amino-acids 536-812 with 3 surface mutations W659A, W777A, F794H); His (C); purchased BPS Bioscience 79498; host or cells: baculovirus expression system
T3 sequence (O60674 536-812 V617F/W659A/W777A/F794H): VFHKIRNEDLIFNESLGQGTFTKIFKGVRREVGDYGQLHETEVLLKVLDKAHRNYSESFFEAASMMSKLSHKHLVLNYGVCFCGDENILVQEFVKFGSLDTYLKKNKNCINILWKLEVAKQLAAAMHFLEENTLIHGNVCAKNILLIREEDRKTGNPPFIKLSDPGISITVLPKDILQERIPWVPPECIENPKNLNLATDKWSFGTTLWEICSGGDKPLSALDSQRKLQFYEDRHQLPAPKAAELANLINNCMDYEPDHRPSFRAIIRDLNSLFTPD
Description: JAK2 LanthaScreen JH2-V617F Binding Assay. The conditions noted are these: 50 nM Fluorescent JAK2-JH2 Tracer, 1 hour at 25° C. The protocol: as §1, with “C.” for “B.”, “JH2-V617F” for “JH2-WT”, “V617F mutant” for “Wild Type”, “#79498).” for “#79463).”, “JH2-V617F (0.26” for “JH2-WT (0.145”

T2 sequence (O60674 536-812 W659A/W777A/F794H): as the sequence (O60674 536-812 V617F/W659A/W777A/F794H) above, with F82V counted along it

`CN(C)S(=O)(=O)c1ccc(-c2[nH]c3nc(N)[nH]c(=O)c3c2-c2cccc(C(=O)O)c2)cc1` [Example 34, 3-(2-amino-6-(4-(N,N-dimethylsulfamoyl)phenyl)-4-oxo-4,7-dihydro-3H-pyrrolo[2,3-d]pyrimidin-5-yl)benzoic acid]: the IC50 in assay [1] was > 2.5 µM; in assay [2], 0.1 to 0.5 µM; in assay [3], 0.1 to 0.5 µM.

On to `CN(C)S(=O)(=O)c1ccc(-c2[nH]c3nc(N)[nH]c(=O)c3c2-c2ccc(C(=O)O)cc2)cc1` [Example 35, 4-(2-amino-6-(4-(N,N-dimethylsulfamoyl)phenyl)-4-oxo-4,7-dihydro-3H-pyrrolo[2,3-d]pyrimidin-5-yl)benzoic acid], for which the IC50 lay within 0.5 to 1 µM in assay [1], 0.1 to 0.5 µM in assay [2] and 0.1 to 0.5 µM in assay [3].

Take `CN(C)S(=O)(=O)c1ccc(-c2[nH]c3nc(N)[nH]c(=O)c3c2-c2cnn(C3CCS(=O)(=O)C3)c2)cc1` (stereo not drawn) [Example 36, 4-(2-Amino-5-(1-(1,1-dioxidotetrahydrothiophen-3-yl)-1H-pyrazol-4-yl)-4-oxo-4,7-dihydro-3H-pyrrolo[2,3-d]pyrimidin-6-yl)-N,N-dimethylbenzene sulfonamide]: the IC50 in assay [1], in assay [2] and in assay [3] was 1 to 2.5 µM throughout.

In the case of `CN(C)S(=O)(=O)c1ccc(-c2[nH]c3nc(N)[nH]c(=O)c3c2-c2cnn(C3CCOCC3)c2)cc1` [Example 37, 4-(2-Amino-4-oxo-5-(1-(tetrahydro-2H-pyran-4-yl)-1H-pyrazol-4-yl)-4,7-dihydro-3H-pyrrolo[2,3-d]pyrimidin-6-yl)-N,N-dimethylbenzene sulfonamide], the IC50 is > 2.5 µM in assay [1], > 2.5 µM in assay [2] and 1 to 2.5 µM in assay [3].

Consider `CN(C)S(=O)(=O)c1ccc(-c2[nH]c3nc(N)[nH]c(=O)c3c2-c2ccccc2)cc1` [Example 38, 4-(2-Amino-4-oxo-5-phenyl-4,7-dihydro-3H-pyrrolo[2,3-d]pyrimidin-6-yl)-N,N-dimethylbenzene sulfonamide], for which the IC50 was 0.5 to 1 µM in assay [1], 0.1 to 0.5 µM in assay [2] and 0.1 to 0.5 µM in assay [3].

For `CN(C)S(=O)(=O)c1ccc(-c2[nH]c3nc(N)[nH]c(=O)c3c2-c2ccc(C#N)cc2)cc1` [Example 39, 4-(2-Amino-5-(4-cyanophenyl)-4-oxo-4,7-dihydro-3H-pyrrolo[2,3-d]pyrimidin-6-yl)-N,N-dimethylbenzene sulfonamide], the IC50 in assay [1] is > 2.5 µM; in assay [2] it was 0.5 to 1 µM; in assay [3], 1 to 2.5 µM.

With `COc1c(Cl)cccc1-c1c(-c2ccc(S(=O)(=O)N(C)C)cc2)[nH]c2nc(N)[nH]c(=O)c12` [Example 40, 4-(2-Amino-5-(3-chloro-2-methoxyphenyl)-4-oxo-4,7-dihydro-3H-pyrrolo[2,3-d]pyrimidin-6-yl)-N,N-dimethylbenzene sulfonamide], the IC50 in assay [1], in assay [2] and in assay [3] was > 2.5 µM in each case.

In the case of `CN(C)S(=O)(=O)c1ccc(-c2[nH]c3nc(N)[nH]c(=O)c3c2-c2cccc3c2OCC3)cc1` [Example 41, 4-(2-Amino-5-(2,3-dihydrobenzofuran-7-yl)-4-oxo-4,7-dihydro-3H-pyrrolo[2,3-d]pyrimidin-6-yl)-N,N-dimethylbenzene sulfonamide], the IC50 in assay [1] was > 2.5 µM; in assay [2], 0.1 to 0.5 µM; in assay [3], 0.1 to 0.5 µM.

In the case of `COc1ccc(-c2c(-c3ccc(S(=O)(=O)N(C)C)cc3)[nH]c3nc(N)[nH]c(=O)c23)c(OC)c1` [Example 42, 4-(2-Amino-5-(2,4-dimethoxyphenyl)-4-oxo-4,7-dihydro-3H-pyrrolo[2,3-d]pyrimidin-6-yl)-N,N-dimethylbenzene sulfonamide], the IC50 in assay [1] is > 2.5 µM; in assay [2], 0.5 to 1 µM; in assay [3], 0.5 to 1 µM.

As for `COc1cccc(-c2c(-c3ccc(S(=O)(=O)N(C)C)cc3)[nH]c3nc(N)[nH]c(=O)c23)c1OC` [Example 43, 4-(2-Amino-5-(2,3-dimethoxyphenyl)-4-oxo-4,7-dihydro-3H-pyrrolo[2,3-d]pyrimidin-6-yl)-N,N-dimethylbenzene sulfonamide], the IC50 in assay [1] was > 2.5 µM; in assay [2], 1 to 2.5 µM; in assay [3] it was 1 to 2.5 µM.

Take `CN(C)S(=O)(=O)c1ccc(-c2[nH]c3nc(N)[nH]c(=O)c3c2-c2cccc3c2OCO3)cc1` [Example 44, 4-(2-Amino-5-(benzo[d] [1,3]dioxol-4-yl)-4-oxo-4,7-dihydro-3H-pyrrolo[2,3-d]pyrimidin-6-yl)-N,N-dimethylbenzene sulfonamide]: the half-inhibitory concentration (IC50) is > 2.5 µM in assay [1], 0.1 to 0.5 µM in assay [2] and 0.1 to 0.5 µM in assay [3].

As to `CN(C)S(=O)(=O)c1ccc(-c2[nH]c3nc(N)[nH]c(=O)c3c2-c2cccc(CN)c2)cc1` [Example 45, 4-(2-Amino-5-(3-(aminomethyl)phenyl)-4-oxo-4,7-dihydro-3H-pyrrolo[2,3-d]pyrimidin-6-yl)-N,N-dimethylbenzenesulfonamide], the IC50 was > 2.5 µM in assay [1], 1 to 2.5 µM in assay [2] and > 2.5 µM in assay [3].

Turning to `CN(C)S(=O)(=O)c1ccc(-c2[nH]c3nc(N)[nH]c(=O)c3c2-c2ccnn2C)cc1` [Example 46, 4-(2-Amino-5-(1-methyl-1H-pyrazol-5-yl)-4-oxo-4,7-dihydro-3H-pyrrolo[2,3-d]pyrimidin-6-yl)-N,N-dimethylbenzenesulfonamide], the IC50 in assay [1], in assay [2] and in assay [3] was > 2.5 µM throughout.

With `CN(C)S(=O)(=O)c1ccc(-c2[nH]c3nc(N)[nH]c(=O)c3c2C2=CCCC2)cc1` [Example 47, 4-(2-Amino-5-(cyclopent-1-en-1-yl)-4-oxo-4,7-dihydro-3H-pyrrolo[2,3-d]pyrimidin-6-yl)-N,N-dimethylbenzenesulfonamide], the half-inhibitory concentration (IC50) in assay [1], in assay [2] and in assay [3] was 0.1 to 0.5 µM in each case.

On to `CN(C)S(=O)(=O)c1ccc(-c2[nH]c3nc(N)[nH]c(=O)c3c2-c2cccc3c2OCC(=O)N3)cc1` [Example 48, 4-(2-Amino-4-oxo-5-(3-oxo-3,4-dihydro-2H-benzo[b][1,4]oxazin-8-yl)-4,7-dihydro-3H-pyrrolo[2,3-d]pyrimidin-6-yl)-N,N-dimethylbenzenesulfonamide], for which the IC50 in assay [1] is > 2.5 µM; in assay [2], 0.1 to 0.5 µM; in assay [3], 0.1 to 0.5 µM.

In the case of `CN(C)S(=O)(=O)c1ccc(-c2[nH]c3nc(N)[nH]c(=O)c3c2-c2cccc3c2OCCN3)cc1` [Example 49, 4-(2-Amino-5-(3,4-dihydro-2H-benzo[b][1,4]oxazin-8-yl)-4-oxo-4,7-dihydro-3H-pyrrolo[2,3-d]pyrimidin-6-yl)-N,N-dimethylbenzenesulfonamide], the IC50 was > 2.5 µM in assay [1], 0.5 to 1 µM in assay [2] and 0.5 to 1 µM in assay [3].
